Experimental data published in ChEMBL document CHEMBL5316343, “Design, Synthesis, and Biological Evaluation of a Potent Dual EZH2-BRD4 Inhibitor for the Treatment of Some Solid Tumors” (J Med Chem, 2023).
Blank lines part the entries; values can stand above or below the compound they belong to. The source made the active and inactive calls. The calls are words filed in the database; no cut-off is given here.

What was measured:
[1] = biological target: T1, Histone-lysine N-methyltransferase EZH2 (Homo sapiens, UniProt Q15910); assay: Inhibition of EZH2 (unknown origin) by radiometric assay
Target sequence in this assay (Q15910 whole entry): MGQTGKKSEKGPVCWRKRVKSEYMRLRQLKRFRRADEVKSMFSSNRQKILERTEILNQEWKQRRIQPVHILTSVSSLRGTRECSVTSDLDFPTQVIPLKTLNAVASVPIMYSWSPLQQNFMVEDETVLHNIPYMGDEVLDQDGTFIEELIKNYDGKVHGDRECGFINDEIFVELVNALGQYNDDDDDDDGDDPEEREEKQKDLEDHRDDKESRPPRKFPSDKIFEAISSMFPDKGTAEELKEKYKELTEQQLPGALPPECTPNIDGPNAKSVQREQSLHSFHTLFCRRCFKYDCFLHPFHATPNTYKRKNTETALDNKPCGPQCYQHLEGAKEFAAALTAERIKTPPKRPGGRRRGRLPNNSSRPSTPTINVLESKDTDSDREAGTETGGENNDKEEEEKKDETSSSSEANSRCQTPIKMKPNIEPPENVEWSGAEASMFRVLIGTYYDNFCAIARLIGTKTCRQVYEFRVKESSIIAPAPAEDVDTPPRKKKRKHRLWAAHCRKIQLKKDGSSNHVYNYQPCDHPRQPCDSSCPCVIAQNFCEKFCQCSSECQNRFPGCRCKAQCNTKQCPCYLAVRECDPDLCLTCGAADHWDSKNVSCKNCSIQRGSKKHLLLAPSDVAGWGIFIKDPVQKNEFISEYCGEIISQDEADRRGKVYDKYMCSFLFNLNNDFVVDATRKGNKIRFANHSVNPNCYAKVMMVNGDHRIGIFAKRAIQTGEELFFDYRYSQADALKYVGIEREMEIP

[2] = biological target: Bromodomain-containing protein 4 (Homo sapiens, UniProt O60885); assay: Inhibition of BRD4 (unknown origin) by HTRF analysis
MDA-MB-231 [3] = assay: Induction of apoptosis in human MDA-MB-231 cells assessed as necrotic cells at 5 uM incubated for 48 hrs by Annexin V-FITC/PI staining based flow cytometric analysis (reference value: 0.63%); type: functional
MDA-MB-231 [4] = assay: Induction of apoptosis in human MDA-MB-231 cells assessed as viable cells at 5 uM incubated for 48 hrs by Annexin V-FITC/PI staining based flow cytometric analysis (reference value: 97.63%); type: functional; conditions: read-out: Activity
MDA-MB-231 [5] = assay: Inhibition of colony formation in human MDA-MB-231 cells assessed as reduction in number of cell colonies at 2.5 uM incubated for 10 to 14 days by crystal violet staining based analysis; type: functional; conditions: time 10-14 day
BXPC-3 [6] = assay: Inhibition of colony formation in human BXPC-3 cells assessed as reduction in number of cell colonies at 2.5 uM incubated for 10 to 14 days by crystal violet staining based analysis; type: functional; conditions: time 10-14 day
BXPC-3 [7] = assay: Inhibition of colony formation in human BXPC-3 cells assessed as reduction in colony size at 0.1 to 2.5 uM incubated for 10 to 14 days in the presence of JQ1 by crystal violet staining based analysis; type: functional, cell-based; conditions: dose 0.1-2.5 µM, time 10-14 day
MDA-MB-231 [8] = assay: Inhibition of colony formation in human MDA-MB-231 cells assessed as reduction in colony size at 0.1 to 2.5 uM incubated for 10 to 14 days in the presence of JQ1 by crystal violet staining based analysis; type: functional, cell-based; conditions: dose 0.1-2.5 µM, time 10-14 day
Mus musculus [9] = assay: In vivo inhibition of EZH2 in Balb/c nude mouse xenografted with human BXPC-3 cells assessed as reduction in H3K27me3 level in tumor at 60 mg/kg, ip administered daily for 30 days by IHC analysis; type: functional, organism-based; conditions: time 30.0 day
MDA-MB-231 [10] = assay: Inhibition of cell proliferation in human MDA-MB-231 cells assessed as decrease in c-Myc protein level at 5 uM incubated for 48 hrs by IHC analysis; type: functional, cell-based
BXPC-3 [11] = assay: Inhibition of cell proliferation in human BXPC-3 cells assessed as decrease in c-Myc protein level at 5 uM incubated for 48 hrs by IHC analysis; type: functional, cell-based
BXPC-3 [12] = assay: Induction of apoptosis in human BXPC-3 cells assessed as early apoptotic cells at 5 uM incubated for 48 hrs by Annexin V-FITC/PI staining based flow cytometric analysis (reference value: 3.28 %); type: functional
[13] = Toxicity in Balb/c nude mouse xenografted with human BXPC-3 cells assessed as effect on body weight at 60 mg/kg, ip administered daily for 30 days; type: organism-based; conditions: in vivo, 720 h, time 30 day
[14] = biological target: T1, Histone-lysine N-methyltransferase EZH2; assay: Inhibition of EZH2 in human MDA-MB-231 cells assessed as increase in H3K27ac level at 5 uM by fluorescence based analysis; type: cell-based
Target sequence in this assay (Q15910 whole entry, looked up): as the sequence (Q15910 whole entry) above

MDA-MB-231 [15] = assay: Induction of apoptosis in human MDA-MB-231 cells assessed as early apoptotic cells at 5 uM incubated for 48 hrs by Annexin V-FITC/PI staining based flow cytometric analysis (reference value: 0.69%); type: functional
BXPC-3 [16] = assay: Induction of apoptosis in human BXPC-3 cells assessed as necrotic cells at 5 uM incubated for 48 hrs by Annexin V-FITC/PI staining based flow cytometric analysis (reference value: 1.65 %); type: functional
MDA-MB-231 [17] = assay: Inhibition of colony formation in human MDA-MB-231 cells incubated for 10 to 14 days in the presence of JQ1 by crystal violet staining based analysis; type: functional, cell-based; conditions: dose 0.1-2.5 µM, time 10-14 day
[18] = biological target: T1, Histone-lysine N-methyltransferase EZH2; assay: Inhibition of EZH2 in human BXPC-3 cells assessed as increase in H3K27ac level at 5 uM by fluorescence based analysis; type: cell-based
Target sequence in this assay (Q15910 whole entry, looked up): as the sequence (Q15910 whole entry) above

BXPC-3 [19] = assay: Inhibition of cell proliferation in human BXPC-3 cells assessed as decrease in c-Myc mRNA level at 5 uM incubated for 48 hrs by qRT-PCR analysis; type: functional, cell-based
BXPC-3 [20] = assay: Antitumor activity against human BXPC-3 cells xenografted in Balb/c nude mouse assessed as reduction in tumor growth at 60 mg/kg, ip administered daily for 30 days; type: functional, organism-based; conditions: time 30.0 day
MDA-MB-231 [21] = assay: Inhibition of cell proliferation in human MDA-MB-231 cells assessed as decrease in c-Myc mRNA level at 5 uM incubated for 48 hrs by qRT-PCR analysis; type: functional, cell-based
Mus musculus [22] = assay: In vivo inhibition of EZH2 in Balb/c nude mouse xenografted with human BXPC-3 cells assessed as increase in H3K27ac level in tumor at 60 mg/kg, ip administered daily for 30 days by IHC analysis; type: functional, organism-based; conditions: time 30.0 day
BXPC-3 [23] = assay: Induction of apoptosis in human BXPC-3 cells assessed as viable cells at 5 uM incubated for 48 hrs by Annexin V-FITC/PI staining based flow cytometric analysis (reference value: 90.70%); type: functional; conditions: read-out: Activity
BXPC-3 [24] = assay: Induction of apoptosis in human BXPC-3 cells assessed as late apoptotic cells at 5 uM incubated for 48 hrs by Annexin V-FITC/PI staining based flow cytometric analysis (reference value: 4.38 %); type: functional
BXPC-3 [25] = assay: Inhibition of colony formation in human BXPC-3 cells assessed as reduction in colony size at 2.5 uM incubated for 10 to 14 days by crystal violet staining based analysis; type: functional, cell-based; conditions: time 10-14 day
MDA-MB-231 [26] = assay: Inhibition of colony formation in human MDA-MB-231 cells assessed as reduction in number of cell colonies at 0.1 to 2.5 uM incubated for 10 to 14 days in the presence of JQ1 by crystal violet staining based analysis; type: functional; conditions: dose 0.1-2.5 µM, time 10-14 day
[27] = biological target: T1, Histone-lysine N-methyltransferase EZH2; assay: Inhibition of EZH2 in human MDA-MB-231 cells assessed as decrease in H3K27me3 level at 5 uM by fluorescence based analysis; type: cell-based
Target sequence in this assay (Q15910 whole entry, looked up): as the sequence (Q15910 whole entry) above

BXPC-3 [28] = assay: Inhibition of colony formation in human BXPC-3 cells incubated for 10 to 14 days in the presence of JQ1 by crystal violet staining based analysis; type: functional, cell-based; conditions: dose 0.1-2.5 µM, time 10-14 day
[29] = biological target: T2, Histone-lysine N-methyltransferase EZH1 (Homo sapiens, UniProt Q92800); assay: Inhibition of EZH1 (unknown origin) by radiometric assay
T2 sequence (Q92800 whole entry): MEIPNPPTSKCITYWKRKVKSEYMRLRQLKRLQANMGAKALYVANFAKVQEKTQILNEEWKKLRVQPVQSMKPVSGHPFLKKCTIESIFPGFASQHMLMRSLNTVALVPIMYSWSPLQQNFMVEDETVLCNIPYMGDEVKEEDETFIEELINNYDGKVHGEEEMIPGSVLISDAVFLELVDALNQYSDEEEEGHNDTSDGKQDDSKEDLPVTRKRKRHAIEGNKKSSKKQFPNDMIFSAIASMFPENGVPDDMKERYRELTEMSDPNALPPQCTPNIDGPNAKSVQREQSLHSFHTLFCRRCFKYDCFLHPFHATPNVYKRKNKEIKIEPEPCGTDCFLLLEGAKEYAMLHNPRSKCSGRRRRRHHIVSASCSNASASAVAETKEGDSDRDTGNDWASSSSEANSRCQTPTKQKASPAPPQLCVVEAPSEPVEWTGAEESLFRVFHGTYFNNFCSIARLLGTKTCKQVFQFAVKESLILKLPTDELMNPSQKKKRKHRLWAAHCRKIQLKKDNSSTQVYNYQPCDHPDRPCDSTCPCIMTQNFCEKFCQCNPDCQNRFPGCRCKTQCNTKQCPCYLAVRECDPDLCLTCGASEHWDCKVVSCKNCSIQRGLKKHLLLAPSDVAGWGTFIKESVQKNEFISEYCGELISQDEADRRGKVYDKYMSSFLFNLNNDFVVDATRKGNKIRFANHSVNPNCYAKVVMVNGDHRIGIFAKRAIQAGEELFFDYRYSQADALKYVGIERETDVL

BXPC-3 [30] = assay: Inhibition of colony formation in human BXPC-3 cells assessed as reduction in number of cell colony at 0.1 to 2.5 uM incubated for 10 to 14 days in the presence of JQ1 by crystal violet staining based analysis; type: functional; conditions: dose 0.1-2.5 µM, time 10-14 day
[31] = biological target: T1, Histone-lysine N-methyltransferase EZH2; assay: Inhibition of EZH2 in human BX-PC-3 cells assessed as decrease in H3K27me3 level at 5 uM by fluorescence based analysis; type: cell-based; conditions: BXPC-3
Target sequence in this assay (Q15910 whole entry, looked up): as the sequence (Q15910 whole entry) above

MDA-MB-231 [32] = assay: Inhibition of colony formation in human MDA-MB-231 cells assessed as reduction in colony size at 2.5 uM incubated for 10 to 14 days by crystal violet staining based analysis; type: functional, cell-based; conditions: time 10-14 day
MDA-MB-231 [33] = assay: Induction of apoptosis in human MDA-MB-231 cells assessed as late apoptotic cells at 5 uM incubated for 48 hrs by Annexin V-FITC/PI staining based flow cytometric analysis (reference value: 1.06%); type: functional

Structure (SMILES): Cc1cc(C)c(CNC(=O)c2cc(-c3cn(C)c(=O)c4[nH]ccc34)cc3[nH]cc(C)c23)c(=O)[nH]1
- IC50 [1]: > 100 nM
- IC50 [2]: > 300 nM

Structure (SMILES): CCC(C)n1cc(C)c2c(C(=O)NCc3c(C)cc(C)[nH]c3=O)cc(-c3ccc(N4CCNCC4)nc3)cc21 (stereo unspecified)
- Activity (MDA-MB-231 [3]): 0.3%
- viability at 5 µM (MDA-MB-231 [4]): 97%
- inhibition (MDA-MB-231 [5]): inactive
- inhibition (BXPC-3 [6]): inactive
- inhibition (BXPC-3 [7]): Active
- inhibition (MDA-MB-231 [8]): Active
- inhibition (Mus musculus [9]): Active
- inhibition (MDA-MB-231 [10]): inactive
- inhibition (BXPC-3 [11]): inactive
- Activity (BXPC-3 [12]): 3.18%
- Activity [13]: Non-Toxic
- inhibition [14]: Active
- Activity (MDA-MB-231 [15]): 1.83%
- Activity (BXPC-3 [16]): 0.98%
- inhibition (MDA-MB-231 [17]): Dose-Dependent Effect
- inhibition [18]: Active
- inhibition (BXPC-3 [19]): inactive
- Activity (BXPC-3 [20]): inactive
- inhibition (MDA-MB-231 [21]): inactive
- inhibition (Mus musculus [22]): Active
- viability at 5 µM (BXPC-3 [23]): 91.9%
- Activity (BXPC-3 [24]): 3.86%
- inhibition (BXPC-3 [25]): inactive
- inhibition (MDA-MB-231 [26]): Active
- inhibition [27]: Active
- inhibition (BXPC-3 [28]): Dose-Dependent Effect
- IC50 [29]: 124 nM
- inhibition (BXPC-3 [30]): Active
- inhibition [31]: Active
- inhibition (MDA-MB-231 [32]): inactive
- Activity (MDA-MB-231 [33]): 0.92%

Structure (SMILES): Cc1[nH]c(=O)c(CNC(=O)c2cc(-c3cn(C)c(=O)c4[nH]ccc34)cc3c2ccn3CC2CCCCC2)c2c1CCCC2
- IC50 [1]: 80 nM
- IC50 [2]: > 300 nM

Structure (SMILES): Cc1[nH]c(=O)c(CNC(=O)c2cc(-c3cn(C)c(=O)c4[nH]ccc34)cc3[nH]ccc23)c2c1CCCC2
- IC50 [1]: 100 nM
- IC50 [2]: > 300 nM

Structure (SMILES): Cc1[nH]c(=O)c(CNC(=O)c2cc(-c3cn(C)c(=O)c4[nH]ccc34)cc3c2c(C)cn3CC2CCCCC2)c2c1CCCC2
- IC50 [1]: > 100 nM
- IC50 [2]: > 300 nM

Continued by falling IC50 [1], values first:

- IC50 [1]: 16 nM
- IC50 [2]: > 300 nM
Structure (SMILES): CCC(CC)n1ccc2c(C(=O)NCc3c4c(c(C)[nH]c3=O)CCCC4)cc(-c3cn(C)c(=O)c4[nH]ccc34)cc21

- IC50 [1]: 7.9 nM
- IC50 [2]: > 300 nM
Structure (SMILES): CCC(C)n1cc(C)c2c(C(=O)NCc3c4c(c(C)[nH]c3=O)CCCC4)cc(-c3cn(C)c(=O)c4[nH]ccc34)cc21 (stereo unspecified)

- IC50 [1]: 5.7 nM
- IC50 [2]: 214 nM
Structure (SMILES): Cc1cc(C)c(CNC(=O)c2cc(-c3cn(C)c(=O)c4[nH]ccc34)cc3c2ccn3C(C)C)c(=O)[nH]1

- IC50 [1]: 3 nM
- IC50 [2]: 154 nM
Structure (SMILES): CCC(CC)n1ccc2c(C(=O)NCc3c(C)cc(C)[nH]c3=O)cc(-c3cn(C)c(=O)c4[nH]ccc34)cc21

- IC50 [1]: 2.8 nM
- IC50 [2]: 173 nM
Structure (SMILES): CCCC(C)n1ccc2c(C(=O)NCc3c(C)cc(C)[nH]c3=O)cc(-c3cn(C)c(=O)c4[nH]ccc34)cc21 (stereo unspecified)

- IC50 [1]: 1.1 nM
- IC50 [2]: > 300 nM
Structure (SMILES): CCC(C)n1cc(C)c2c(C(=O)NCc3c(C)cc(C)[nH]c3=O)cc(-c3cn(C)c(=O)c4[nH]ccc34)cc21 (stereo unspecified)
